US3971779A, “7-[2-(5-Amino-1,3,4-thiadiazol-2-ylthio)acetamido]cephalosporins” (American Home Products Corporation, priority 1975, dated 1976)
Read-outs that look alike come from different tables or passages of the source.

What was measured:
Assay in all cases: agar serial dilution MIC
Format in all cases: cell-based
[1] = test system: Klebsiella pneumoniae (KL PN) 10031
Procedure: (§1) A stock solution of 7-[2-(4,5-dihydro-5-imino-1,3,4-thiadiazol-2-ylthio)acetamido]cephalosporanic acid as the hydrobromic acid addition salt containing 2,500 μg. of the active moiety is prepared in phosphate buffer. Two fold serial dilutions are prepared with phosphate buffer. One milliliter (ml.) quantities of each dilution are incorporated in 9 ml. seen agar in sterile Petri plates. The hardened surface is innoculated with test organisms using a Steers replicating device. The plates are incubated at 35° C. for 18 hours.
(§2) The test organisms are Bacillus subtilis (BA SU) 6633; Staphylococcus aureus (ST AU) 6538P, Smith CHP, and 3-180; Mycobacterium smegmatis (MY SM) 10143; Neisseria catarrhalis (NE CA) 8193; Pseudonomas aeruginosa (PS AE) 10145; Escherichia coli (ES CO) 9637, and 920; Escherichia intermedia (ES IN) 65-1; Salmonella paratyphi (SA PA) 11737; Enterobacter aerogenes (EN AE) 13048; Klebsiella pneumoniae (KL PN) 10031; Bordetella bronchiseptica (BO BR) 4617; Proteus vulgaris (PR VU) 6896; and Herellea species (HE SP) 9955. These organisms are grown for 18 hours in Brain heart infusion at 35° C. Prior to use the cultures are diluted 10 fold with the infusion, except in the case of Mycobacterium. The latter is grown in Emerson's broth for 5 days at 28° C. in shaker flasks and used undiluted.
(§3) A second preparation of 7-[2-(4,5-dihydro-5-imino-1,3,4-thiadiazol-2-ylthio)acetamido]cephalosporanic acid prepared as described in Example 1 is tested as described in Example 2. The minimum inhibitory concentrations obtained are as follows: […]

[2] = test system: Proteus vulgaris (PR VU) 6896
Procedure: as §1, §2, §3

[3] = test system: Escherichia intermedia (ES IN) 65-1; conditions: Citrobacter intermedius
Procedure: as §1, §2, §3

[4] = test system: Herellea species (HE SP) 9955
Procedure: as §1, §2, §3

[5] = test system: Escherichia coli (ES CO) 920
Procedure: as §1, §2, §3

[6] = test system: Staphylococcus aureus (ST AU) CHP
Procedure: as §1, §2, §3

[7] = test system: Bacillus subtilis (BA SU) 6633
Procedure: as §1, §2, §3

[8] = test system: Enterobacter aerogenes (EN AE) 13048; conditions: Klebsiella aerogenes
Procedure: as §1, §2, §3

[9] = test system: Neisseria catarrhalis (NE CA) 8193
Procedure: as §1, §2, §3

[10] = test system: Staphylococcus aureus (ST AU) 6538P
Procedure: as §1, §2, §3

[11] = test system: Salmonella paratyphi (SA PA) 11737; conditions: Salmonella enterica, 18 h
Procedure: as §1, §2, §3

[12] = test system: Staphylococcus aureus (ST AU) Smith
Procedure: as §1, §2, §3

[13] = test system: Staphylococcus aureus (ST AU) 3-180; conditions: 18 h
Procedure: as §1, §2, §3

[14] = test system: Escherichia coli (ES CO) 9637
Procedure: as §1, §2, §3

[15] = test system: Mycobacterium smegmatis (MY SM) 10143; conditions: Mycolicibacterium smegmatis
Procedure: as §1, §2, §3

[16] = test system: Bordetella bronchiseptica (BO BR) 4617; conditions: 18 h
Procedure: as §1, §2, §3

[17] = test system: Pseudonomas aeruginosa (PS AE) 10145
Procedure: as §1, §2, §3

[18] = test system: Enterobacter cloacae 13047; conditions: Example 4
Procedure: as §1, §2
(§4) Following the procedure of Example 2 but substituting the organisms listed below the same preparation of 7-[2-(4,5-dihydro-5-imino-1,3,4-thiadiazol-2-ylthio)acetamido]cephalosporanic acid (Compound A) as used in Example 3, a third sample of the same compound, prepared as described in Example 1 (Compound B) and 7-[2-(5-acetamido-1,3,4-thiadiazol-2-ylthio)acetamido]cephalosporanic acid (Compound C) are tested to obtain the results shown: […]

[19] = test system: Acinetobacter calcoaceticus 9957
Procedure: as §1, §2, §4

Klebsiella ozaenae 11296 = test system: Klebsiella ozaenae 11296
Procedure: as §1, §2, §4

Arizona arizonae 13314 = test system: Arizona arizonae 13314
Procedure: as §1, §2, §4

[20] = test system: Citrobacter freundii 8090; conditions: Example 4
Procedure: as §1, §2, §4

Proteus mirabilis 9921 = conditions: Example 4
Procedure: as §1, §2, §4

[21] = test system: Citrobacter diversus 27156; conditions: Citrobacter koseri, Example 4
Procedure: as §1, §2, §4

[22] = test system: Enterobacter havniae 11604; conditions: Example 4
Procedure: as §1, §2, §4

Shigella flexneri 12025 = conditions: Example 4
Procedure: as §1, §2, §4

[23] = test system: Serratia marcescens 13880; conditions: Example 4
Procedure: as §1, §2, §4

[24] = 18 h, second preparation (Example 3), read-out: minimum inhibitory concentration (MIC)
[25] = first preparation (Example 2), HBr salt, 35° C., 18 hours, read-out: minimum concentration (MIC) required to completely inhibit growth
[26] = read-out: minimum concentration (MIC) required to completely inhibit growth
[27] = second preparation (Example 3), read-out: minimum inhibitory concentration (MIC)

Measured: MIC

CC(=O)OCC1=C(C(=O)O)N2C(=O)C(NC(=O)CSc3n[nH]c(=N)s3)C2SC1 (stereo not shown) [7-[2-(4,5-Dihydro-5-Imino-1,3,4-Thiadiazol-2-ylthio)Acetamido]Cephalosporanic Acid]
0.122 µg/mL: [7]; [24] | [7]; [25]
0.244 µg/mL: [12]; [25]
0.976 µg/mL: [6]; [25] | [10]; [24]
> 250 µg/mL: [3]; [24] | [3]; [25] | [4]; [24] | [4]; [25] | [8]; [24] | [8]; [25] | [15]; [24] | [15]; [25] | [17]; [24] | [17]; [25] | [18] | [20] | [22] | [23]
0.488 µg/mL: [10]; [25] | [12]; [24]
15.6 µg/mL: [2]; [25] | [5]; [25]
31.3 µg/mL: [9]; [25] | [14]; [24] | Shigella flexneri 12025; listed as A
7.81 µg/mL: [14]; [25] | [16]; [26] | [19] | Proteus mirabilis 9921 | Shigella flexneri 12025; listed as B
62.5 µg/mL: [9]; [24]
1.95 µg/mL: [6]; 18 h, read-out: minimum inhibitory concentration (MIC) | [13]; [26] | Klebsiella ozaenae 11296 | Arizona arizonae 13314; Salmonella enterica, 13314, Example 4 | [21]
3.9 µg/mL: [1]; [24] | [1]; [25] | [2]; [24] | [5]; [24] | [11]; [26] | [11]; read-out: minimum inhibitory concentration (MIC) | [13]; [27] | [16]; [27] | Arizona arizonae 13314; Salmonella enterica, 13314, Example 4, read-out: MIC
